Laboratory results: ChEMBL document CHEMBL3779822, “Indolyl-3-ethanone-α-thioethers: A promising new class of non-toxic antimalarial agents” (Eur J Med Chem, 2016)

What was measured:
HeLa = assay: Growth inhibition of human HeLa cells after 48 hrs by resazurin assay; assay type: cell-based
Plasmodium falciparum = assay: Antiplasmodial activity against Plasmodium falciparum 3D7 infected in human erythrocytes assessed as inhibition of parasite growth after 48 hrs by parasite lactate dehydrogenase assay; assay type: functional, organism-based; conditions: 3D7, 48 h
[1] = Selectivity index, ratio if IC50 for human HeLa cells to IC50 for Plasmodium falciparum 3D7; assay type: functional

SMILES | IC50 (HeLa) [µM] | IC50 (Plasmodium falciparum) [µM] | Ratio IC50 [1]
O=C(COc1ccc(Cl)cc1)c1c[nH]c2ccccc12 | > 500 | 1.8 | 278
O=C(CNc1ccccc1)c1c[nH]c2ccccc12 | > 500 | 73 | 7
O=C(CSCc1ccc(F)cc1)c1c[nH]c2ccccc12 | > 500 | 58 | 9
O=C(CSCc1ccc(Br)cc1)c1c[nH]c2ccccc12 | > 500 | > 500 | –
O=C(CSc1ccc(Br)cc1)c1c[nH]c2ccc(Br)cc12 | > 500 | 0.12 | 4167
O=C(CSc1cccc(Cl)c1)c1c[nH]c2ccccc12 | > 500 | 44 | 11
Cc1ccccc1SCC(=O)c1c[nH]c2ccccc12 | > 500 | 12 | 42
O=C(CSCc1ccc(Cl)cc1)c1c[nH]c2ccccc12 | > 500 | > 500 | –
O=C(CSc1ccc(Br)cc1)c1c[nH]c2cc(Br)c(F)cc12 | > 500 | 19 | 26
O=C(CSc1cccc(Br)c1)c1c[nH]c2ccccc12 | > 500 | 106 | 5
O=C(CSc1ccc(Cl)cc1)c1c[nH]c2ccccc12 | > 500 | 1.4 | 357
O=C(CSc1ccc(Br)cc1)c1cn(Cc2ccccc2)c2ccccc12 | > 500 | 2.7 | 185
O=C(CSc1ccc(Br)cc1)c1c[nH]c2c(F)cccc12 | > 500 | 2.4 | 208
Cc1ccc(SCC(=O)c2c[nH]c3ccccc23)cc1 | > 500 | 19 | 26
O=C(CSc1ccc(Br)cc1)c1c[nH]c2cc(Cl)c(F)cc12 | > 500 | 12 | 42
CC[C@H]1CN2CCc3cc(OC)c(OC)cc3[C@@H]2C[C@@H]1C[C@H]1NCCc2cc(OC)c(OC)cc21 [EMETINE] | 0.37 | – | –
O=C(CSc1ccc(Br)cc1)c1c[nH]c2cc(Cl)ccc12 | > 500 | 2.8 | 179
O=C(CSc1ccc([N+](=O)[O-])cc1)c1c[nH]c2ccccc12 | > 500 | 0.24 | 2083

Now from value to compound, other results behind:

IC50 (HeLa) [µM] | SMILES | IC50 (Plasmodium falciparum) [µM] | Ratio IC50 [1]
> 500 | CC(C)(C)c1ccc(SCC(=O)c2c[nH]c3ccccc23)cc1 | 8.9 | 56
284 | O=C(CSc1ccccc1)c1c[nH]c2ccccc12 | 29 | 10
> 500 | O=C(CSc1ccc(Br)cc1)c1c[nH]c2ccc(Cl)cc12 | 0.09 | 5556
56 | O=C(CSc1ccc(Br)cc1)c1c[nH]c2c(I)cccc12 | 45 | 1
> 500 | O=C(CSc1ccc(F)cc1)c1c[nH]c2ccccc12 | 1.7 | 294
> 500 | Cn1cc(C(=O)CSc2ccc(Br)cc2)c2ccccc21 | 15 | 33
> 500 | O=C(CSCc1ccccc1)c1c[nH]c2ccccc12 | 131 | 4
> 500 | O=C(CSc1ccccc1Cl)c1c[nH]c2ccccc12 | > 500 | –
> 500 | O=C(CSc1cccc(F)c1)c1c[nH]c2ccccc12 | 3.9 | 128
> 500 | O=C(CSc1ccc(Br)cc1)c1c[nH]c2cc(F)ccc12 | 1.3 | 385
224 | Cc1cc(Br)c2[nH]cc(C(=O)CSc3ccc(Br)cc3)c2c1 | 1.8 | 124
> 500 | O=C(COc1ccccc1)c1c[nH]c2ccccc12 | > 500 | –
> 500 | O=C(CSc1ccc(Br)cc1)c1c[nH]c2ccccc12 | 1.3 | 385
76 | CC(SCC(=O)c1c[nH]c2ccccc12)c1ccccc1 (stereo not drawn) | 122 | 1
> 500 | O=C(CSc1ccc(Br)cc1)c1c[nH]c2cc(Br)ccc12 | 279 | 2
35 | O=C(CSCc1cccc(Br)c1)c1c[nH]c2ccccc12 | 13 | 3
60 | CN(C)c1ccc(SCC(=O)c2c[nH]c3ccccc23)cc1 | 105 | 1
16 | O=C(CNc1ccc(Cl)cc1)c1c[nH]c2ccccc12 | 29 | 0.6
14 | O=C(CSCCc1ccccc1)c1c[nH]c2ccccc12 | 7.8 | 2
36 | Nc1ccc(SCC(=O)c2c[nH]c3ccccc23)cc1 | 20 | 2
